According to article PMC9250534, “Synthesis and direct assay of large macrocycle diversities by combinatorial late-stage modification at picomole scale” (Nature Communications, 2022):

Target: MDM2 (Homo sapiens, UniProt Q00987)
Assay: MDM2 binding screen of Libraries 3 and 4: displacement of fluorescent probe F-M8 at 750 nM macrocycle
Settings: Panel b, Library 3: 63 scaffolds combinatorially acylated with 15 carboxylic acids at 30 picomole scale; displacement of fluorescent peptide probe; macrocycle 750 nM
Method in brief: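 Cyclic peptide scaffolds were acylated in DMSO with carboxylic acids (20 equiv.), HBTU and DABCO for 6 h at room temperature. Reactions were quenched overnight in 100 mM Tris-Cl pH 7.4, 0.01% Tween20. The fluorescein conjugate was also competed with nutlin-3a.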

MDM2, sequence (Q00987 whole entry): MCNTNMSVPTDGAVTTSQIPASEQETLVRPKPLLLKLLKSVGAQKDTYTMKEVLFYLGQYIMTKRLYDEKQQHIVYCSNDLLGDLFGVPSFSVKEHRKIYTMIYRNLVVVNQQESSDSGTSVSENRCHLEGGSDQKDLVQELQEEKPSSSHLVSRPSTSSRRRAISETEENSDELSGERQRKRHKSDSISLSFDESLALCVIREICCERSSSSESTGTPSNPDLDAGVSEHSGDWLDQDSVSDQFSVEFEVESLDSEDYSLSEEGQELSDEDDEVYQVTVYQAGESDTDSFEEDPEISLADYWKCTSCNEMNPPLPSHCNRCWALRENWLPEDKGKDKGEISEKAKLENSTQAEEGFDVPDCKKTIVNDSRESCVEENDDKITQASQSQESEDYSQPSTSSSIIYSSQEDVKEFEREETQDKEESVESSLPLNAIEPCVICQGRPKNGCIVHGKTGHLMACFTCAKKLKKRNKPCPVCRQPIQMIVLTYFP

Structure (SMILES) | fraction of fluorescent probe displaced
O=C1CCSSCCNC(=O)[C@H](Cc2cccc3ccccc23)NC(=O)CN(CCNC(=O)c2ccc(Cl)cc2)C(=O)C2(CC2)CN1 [X-Amcp-N-Aeg-1-NaI + Acid 25] | -0.012
O=C1CCSSCCNC(=O)[C@H](Cc2cccc3ccccc23)NC(=O)CN(CCNC(=O)c2ccc3ccccc3c2)C(=O)C2(CC2)CN1 [X-Amcp-N-Aeg-1-NaI + Acid 107] | 0.011
O=C(/C=C/c1ccc(Cl)cc1)NCCN1CC(=O)N[C@@H](Cc2cccc3ccccc23)C(=O)NCCSSCCC(=O)NCC2(CC2)C1=O [X-Amcp-N-Aeg-1-NaI + Acid 108] | 0.035
O=C(/C=C/c1ccc2ccccc2c1)NCCN1CC(=O)N[C@@H](Cc2cccc3ccccc23)C(=O)NCCSSCCC(=O)NCC2(CC2)C1=O [X-Amcp-N-Aeg-1-NaI + Acid 112] | 0.008
CC(Oc1cccc(Cl)c1)C(=O)NCCN1CC(=O)N[C@@H](Cc2cccc3ccccc23)C(=O)NCCSSCCC(=O)NCC2(CC2)C1=O (some centres unmarked) [X-Amcp-N-Aeg-1-NaI + Acid 113] | 0.028
O=C(CCS(=O)(=O)c1ccccc1)NCCN1CC(=O)N[C@@H](Cc2cccc3ccccc23)C(=O)NCCSSCCC(=O)NCC2(CC2)C1=O [X-Amcp-N-Aeg-1-NaI + Acid 114] | 0.00133
O=C1CCSSCCNC(=O)[C@H](Cc2ccc3ccccc3c2)NC(=O)CN(CCNC(=O)c2ccc(Cl)s2)C(=O)C2(CC2)CN1 [X-Amcp-N-Aeg-2-Nal + Acid 14] | -0.032
O=C1CCSSCCNC(=O)C(Cc2ccc3ccccc3c2)NC(=O)CN(CCNC(=O)C2CC2c2ccccc2)C(=O)C2(CC2)CN1 (centres unmarked) [X-Amcp-N-Aeg-2-Nal + Acid 105] | -0.041
O=C1CCSSCCNC(=O)[C@H](Cc2ccc3ccccc3c2)NC(=O)CN(CCNC(=O)c2ccc3ccccc3c2)C(=O)C2(CC2)CN1 [X-Amcp-N-Aeg-2-Nal + Acid 107] | 0.018
O=C(/C=C/c1ccc(Cl)cc1)NCCN1CC(=O)N[C@@H](Cc2ccc3ccccc3c2)C(=O)NCCSSCCC(=O)NCC2(CC2)C1=O [X-Amcp-N-Aeg-2-Nal + Acid 108] | 0.041
O=C(/C=C/c1ccc(OCc2ccccc2)cc1)NCCN1CC(=O)N[C@@H](Cc2ccc3ccccc3c2)C(=O)NCCSSCCC(=O)NCC2(CC2)C1=O [X-Amcp-N-Aeg-2-Nal + Acid 110] | 0.021
CC(Oc1cccc(Cl)c1)C(=O)NCCN1CC(=O)N[C@@H](Cc2ccc3ccccc3c2)C(=O)NCCSSCCC(=O)NCC2(CC2)C1=O (some centres unmarked) [X-Amcp-N-Aeg-2-Nal + Acid 113] | 0.008
O=C(CCS(=O)(=O)c1ccccc1)NCCN1CC(=O)N[C@@H](Cc2ccc3ccccc3c2)C(=O)NCCSSCCC(=O)NCC2(CC2)C1=O [X-Amcp-N-Aeg-2-Nal + Acid 114] | 0.028
O=C1CCSSCCNC(=O)[C@H](Cc2c[nH]c3cc(Cl)ccc23)NC(=O)CN(CCNC(=O)c2ccc(Cl)cc2)C(=O)C2(CC2)CN1 [X-Amcp-N-Aeg-Cl-Trp + Acid 25] | -0.025
O=C(/C=C/c1ccc(OCc2ccccc2)cc1)NCCN1CC(=O)N[C@@H](Cc2c[nH]c3cc(Cl)ccc23)C(=O)NCCSSCCC(=O)NCC2(CC2)C1=O [X-Amcp-N-Aeg-Cl-Trp + Acid 110] | 0.015
O=C1CCSSCCNC(=O)[C@H](Cc2c[nH]c3cc(Cl)ccc23)NC(=O)CN(CCNC(=O)c2cccc(Oc3ccccc3)c2)C(=O)C2(CC2)CN1 [X-Amcp-N-Aeg-Cl-Trp + Acid 111] | -0.00533
O=C(CCS(=O)(=O)c1ccccc1)NCCN1CC(=O)N[C@@H](Cc2c[nH]c3cc(Cl)ccc23)C(=O)NCCSSCCC(=O)NCC2(CC2)C1=O [X-Amcp-N-Aeg-Cl-Trp + Acid 114] | -0.00533
O=C1CCSSCCNC(=O)[C@H](Cc2c[nH]c3cc(Cl)ccc23)NC(=O)CN(CCNC(=O)C2COc3ccccc3O2)C(=O)C2(CC2)CN1 (some centres unmarked) [X-Amcp-N-Aeg-Cl-Trp + Acid 115] | 0.00133
O=C(/C=C/c1ccc(OCc2ccccc2)cc1)NCCN1CC(=O)N[C@H](Cc2c[nH]c3ccccc23)C(=O)NCCSSCCC(=O)NCC2(CC2)C1=O [X-Amcp-N-Aeg-D-Trp + Acid 110] | 0.015
O=C1CCSSCCNC(=O)[C@@H](Cc2c[nH]c3ccccc23)NC(=O)CN(CCNC(=O)c2cccc(Oc3ccccc3)c2)C(=O)C2(CC2)CN1 [X-Amcp-N-Aeg-D-Trp + Acid 111] | 0.008
O=C(CCS(=O)(=O)c1ccccc1)NCCN1CC(=O)N[C@H](Cc2c[nH]c3ccccc23)C(=O)NCCSSCCC(=O)NCC2(CC2)C1=O [X-Amcp-N-Aeg-D-Trp + Acid 114] | 0.055
O=C1CCSSCCNC(=O)[C@@H](Cc2c[nH]c3ccccc23)NC(=O)CN(CCNC(=O)C2COc3ccccc3O2)C(=O)C2(CC2)CN1 (stereo partly drawn) [X-Amcp-N-Aeg-D-Trp + Acid 115] | 0.048
Cn1cc(C[C@@H]2NC(=O)CN(CCNC(=O)c3ccc(Cl)s3)C(=O)C3(CC3)CNC(=O)CCSSCCNC2=O)c2ccccc21 [X-Amcp-N-Aeg-Me-Trp + Acid 14] | -0.00533
Cn1cc(C[C@@H]2NC(=O)CN(CCNC(=O)c3ccc(Cl)cc3)C(=O)C3(CC3)CNC(=O)CCSSCCNC2=O)c2ccccc21 [X-Amcp-N-Aeg-Me-Trp + Acid 25] | -0.012
Cn1cc(C[C@@H]2NC(=O)CN(CCNC(=O)c3ccc4ccccc4c3)C(=O)C3(CC3)CNC(=O)CCSSCCNC2=O)c2ccccc21 [X-Amcp-N-Aeg-Me-Trp + Acid 107] | -0.002
Cn1cc(C[C@@H]2NC(=O)CN(CCNC(=O)/C=C/c3ccc(OCc4ccccc4)cc3)C(=O)C3(CC3)CNC(=O)CCSSCCNC2=O)c2ccccc21 [X-Amcp-N-Aeg-Me-Trp + Acid 110] | 0.015
Cn1cc(C[C@@H]2NC(=O)CN(CCNC(=O)c3cccc(Oc4ccccc4)c3)C(=O)C3(CC3)CNC(=O)CCSSCCNC2=O)c2ccccc21 [X-Amcp-N-Aeg-Me-Trp + Acid 111] | 0.015
Cn1cc(C[C@@H]2NC(=O)CN(CCNC(=O)/C=C/c3ccc4ccccc4c3)C(=O)C3(CC3)CNC(=O)CCSSCCNC2=O)c2ccccc21 [X-Amcp-N-Aeg-Me-Trp + Acid 112] | 0.028
CN1C(=O)CN(CCNC(=O)c2ccc(Cl)s2)C(=O)C2(CC2)CNC(=O)CCSSCCNC(=O)[C@@H]1Cc1c[nH]c2ccccc12 [X-Amcp-N-Aeg-NMe-Trp + Acid 14] | -0.012
CN1C(=O)CN(CCNC(=O)c2ccc(Cl)cc2)C(=O)C2(CC2)CNC(=O)CCSSCCNC(=O)[C@@H]1Cc1c[nH]c2ccccc12 [X-Amcp-N-Aeg-NMe-Trp + Acid 25] | -0.012

Now from value to compound:

fraction of fluorescent probe displaced | Structure (SMILES)
0.068 | O=C(/C=C/c1ccc(Cl)cc1)NC[C@@H]1NC(=O)C2(CC2)CNC(=O)CCSSCCNC(=O)[C@H](Cc2c[nH]c3ccccc23)NC1=O [X-Amcp-Dap-Trp + Acid 108]
0.015 | O=C(/C=C/c1ccc(OCc2ccccc2)cc1)NC[C@@H]1NC(=O)C2(CC2)CNC(=O)CCSSCCNC(=O)[C@H](Cc2c[nH]c3ccccc23)NC1=O [X-Amcp-Dap-Trp + Acid 110]
-0.00533 | O=C(CCS(=O)(=O)c1ccccc1)NC[C@@H]1NC(=O)C2(CC2)CNC(=O)CCSSCCNC(=O)[C@H](Cc2c[nH]c3ccccc23)NC1=O [X-Amcp-Dap-Trp + Acid 114]
-0.019 | O=C(/C=C/c1ccc2ccccc2c1)NCCN1CC(=O)N[C@@H](Cc2c[nH]c3cc(Cl)ccc23)C(=O)NCCSSCCC(=O)NCC2(CC2)C1=O [X-Amcp-N-Aeg-Cl-Trp + Acid 112]
0.035 | O=C(/C=C/c1ccc(Cl)cc1)NCCN1CC(=O)N[C@H](Cc2c[nH]c3ccccc23)C(=O)NCCSSCCC(=O)NCC2(CC2)C1=O [X-Amcp-N-Aeg-D-Trp + Acid 108]
0.008 | O=C(/C=C/c1ccc2ccccc2c1)NCCN1CC(=O)N[C@H](Cc2c[nH]c3ccccc23)C(=O)NCCSSCCC(=O)NCC2(CC2)C1=O [X-Amcp-N-Aeg-D-Trp + Acid 112]
0.00133 | CC(Oc1cccc(Cl)c1)C(=O)NCCN1CC(=O)N[C@H](Cc2c[nH]c3ccccc23)C(=O)NCCSSCCC(=O)NCC2(CC2)C1=O (stereo partly drawn) [X-Amcp-N-Aeg-D-Trp + Acid 113]

Same assay, conditions: Panel c, Library 4: best nine scaffolds and 15 additional carboxylic acids; displacement of fluorescent probe

fraction of fluorescent probe displaced | Structure (SMILES)
0.077 | O=C(/C=C/c1ccc(F)cc1)NC[C@@H]1NC(=O)C2(CC2)CNC(=O)CCSSCCNC(=O)[C@H](Cc2c[nH]c3ccccc23)NC1=O [X-Amcp-Dap-Trp + Acid 116]
0.069 | CCCOc1ccc(/C=C/C(=O)NC[C@@H]2NC(=O)C3(CC3)CNC(=O)CCSSCCNC(=O)[C@H](Cc3c[nH]c4ccccc34)NC2=O)cc1 [X-Amcp-Dap-Trp + Acid 118]
0.069 | O=C(/C=C/c1ccc(Cl)c(Cl)c1)NC[C@@H]1NC(=O)C2(CC2)CNC(=O)CCSSCCNC(=O)[C@H](Cc2c[nH]c3ccccc23)NC1=O [X-Amcp-Dap-Trp + Acid 119]
0.052 | O=C(/C=C/c1cccc(Cl)c1)NC[C@@H]1NC(=O)C2(CC2)CNC(=O)CCSSCCNC(=O)[C@H](Cc2c[nH]c3ccccc23)NC1=O [X-Amcp-Dap-Trp + Acid 121]
0.052 | O=C(/C=C/c1cccc(C(F)(F)F)c1)NC[C@@H]1NC(=O)C2(CC2)CNC(=O)CCSSCCNC(=O)[C@H](Cc2c[nH]c3ccccc23)NC1=O [X-Amcp-Dap-Trp + Acid 122]
0.028 | CC(C)c1ccc(/C=C/C(=O)NC[C@@H]2NC(=O)C3(CC3)CNC(=O)CCSSCCNC(=O)[C@H](Cc3c[nH]c4ccccc34)NC2=O)cc1 [X-Amcp-Dap-Trp + Acid 127]
0.0035 | O=C1CCSSCCNC(=O)[C@H](Cc2c[nH]c3ccccc23)NC(=O)[C@H](CNC(=O)c2cnc3ccccc3n2)NC(=O)C2(CC2)CN1 [X-Amcp-Dap-Trp + Acid 130]
